In PMC6442460 (Journal of chemical information and modeling, 2018):
Like-named read-outs stand apart in the source and are kept apart here.

What was measured:
[1] = target: T1, ECL (Erythrina cristagalli lectin) (Erythrina crista-galli, UniProt P83410); settings: cited from earlier work
T1 sequence (P83410 1-239): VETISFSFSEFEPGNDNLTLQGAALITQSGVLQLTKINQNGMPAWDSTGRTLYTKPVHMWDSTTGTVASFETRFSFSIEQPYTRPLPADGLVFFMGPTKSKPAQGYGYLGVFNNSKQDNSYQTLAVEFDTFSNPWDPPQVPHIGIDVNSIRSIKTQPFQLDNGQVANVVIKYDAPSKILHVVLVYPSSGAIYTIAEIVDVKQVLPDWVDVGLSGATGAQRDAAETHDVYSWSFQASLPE

[2] = target: T1, ECL (Erythrina cristagalli lectin); settings: cited from earlier work; remark: listed apart in the source
[3] = target: T1, ECL (Erythrina cristagalli lectin); settings: cited from earlier work; remark: listed apart in the source
[4] = target: T1, ECL (Erythrina cristagalli lectin); assay: Protein BLI inhibition; format: binding; settings: for ΔG: binding free energy from BLI KD, standard deviations in parentheses; for affinity for ECL (result in words): BLI
[5] = target: T1, ECL (Erythrina cristagalli lectin); assay: Isothermal titration calorimetry; format: binding; settings: relative to 1

## O=C[C@@H](O)[C@H](O)[C@H](O)CO [D-Ara]
[1]
  inhibitory power relative to D-Gal (result in words): poor inhibitors

## OC[C@H]1OC(O)[C@H](O)[C@@H](O)[C@H]1O (stereo partly drawn) [D-Gal, reference compound]
[2]; ITC at 25 °C
  reference ΔG: –4.0 (<0.1) kcal/mol

## CC(=O)N[C@H]1C(O)O[C@H](CO)[C@@H](O)[C@@H]1O (stereo partly drawn) [D-GlcNAc]
[1]
  inhibitory power relative to D-Gal (result in words): poor inhibitors

## OC[C@H]1OC(O)[C@H](O)[C@@H](O)[C@@H]1O (stereo partly drawn) [D-Glc]
[1]
  inhibitory power relative to D-Gal (result in words): poor inhibitors

## C[C@@H]1OC(O)[C@@H](O)[C@H](O)[C@@H]1O (stereo partly drawn) [L-Fuc]
[1]
  inhibitory power relative to D-Gal (result in words): poor inhibitors

## OC[C@H]1O[C@@H](O[C@H]2[C@H](O)[C@@H](O)[C@H](O)O[C@@H]2CO)[C@H](O)[C@@H](O)[C@H]1O [ligand 1, lactose]
[2]; ITC at 25 °C
  reference ΔG: –4.8 (<0.1) kcal/mol
[2]; ITC at 27 °C
  reference ΔG: –4.9 (0.2) kcal/mol
[3]
  binding in glycan array screening of ECL: nonbinders
[4]
  ΔG: –4.83 (0.04) kcal/mol

## OC[C@H]1O[C@@H](O[C@H]2[C@H](O)[C@H](O)C(O)O[C@@H]2CO)[C@H](O)[C@@H](O)[C@H]1O (stereo partly drawn) [ligand 2, epi-lactose]
[4]
  ΔG: –5.08 (0.02) kcal/mol

## CC(=O)N[C@H]1C(O)O[C@H](CO)[C@@H](O[C@@H]2O[C@H](CO)[C@H](O)[C@H](O)[C@H]2O)[C@@H]1O (stereo partly shown) [ligand 3, N-acetyllactosamine]
[2]; ITC at 27 °C
  reference ΔG: –5.5 (0.1) kcal/mol
[5]
  fold higher affinity of ECL: about 3 fold
[3]
  binding in glycan array screening of ECL: binders
[4]
  ΔG: –5.66 (0.04) kcal/mol

## CC(=O)N[C@H]1[C@H](O[C@H]2[C@H](O)[C@@H](NC(C)=O)C(O)O[C@@H]2CO)O[C@H](CO)[C@H](O)[C@@H]1O (stereo partly shown) [ligand 4, N,N-diacetyllactosamine]
[3]
  binding in glycan array screening of ECL: binders

## C[C@@H]1O[C@@H](O[C@H]2[C@H](O[C@H]3[C@H](O)[C@@H](O)C(O)O[C@@H]3CO)O[C@H](CO)[C@H](O)[C@@H]2O)[C@@H](O)[C@H](O)[C@@H]1O (stereo partly shown) [ligand 5, fucosylated lactose]
[2]; ITC at 25 °C
  reference ΔG: –4.8 (<0.1) kcal/mol
[3]
  binding in glycan array screening of ECL: nonbinders
[4]
  ΔG: –5.04 (0.06) kcal/mol

## CC(=O)N[C@H]1C(O)O[C@H](CO)[C@@H](O[C@@H]2O[C@H](CO)[C@H](O)[C@H](O)[C@H]2O[C@@H]2O[C@@H](C)[C@@H](O)[C@@H](O)[C@@H]2O)[C@@H]1O (stereo partly shown) [ligand 6, fucosylated N-acetyllactosamine]
[3]
  binding in glycan array screening of ECL: binders
[4]
  ΔG: –6.21 (0.14) kcal/mol

## O=C[C@H](O)[C@@H](O)[C@H](O[C@@H]1O[C@H](CO)[C@@H](O)[C@H](O)[C@H]1O)[C@H](O)CO [ligand 7, cellobiose]
[4]
  affinity for ECL (result in words): Neither cellobiose (Glcβ1–4Glcβ, 7) nor maltose (Glcα1–4Glcβ, 8) shows any measurable affinity

## OC[C@H]1O[C@H](O[C@H]2[C@H](O)[C@@H](O)[C@H](O)O[C@@H]2CO)[C@H](O)[C@@H](O)[C@@H]1O [ligand 8, maltose]
[4]
  affinity for ECL (result in words): Neither cellobiose (Glcβ1–4Glcβ, 7) nor maltose (Glcα1–4Glcβ, 8) shows any measurable affinity
